Measured values taken from the supplement of paper PMC11208160.

Experiment: recombinant barcode read abundance after kanamycin selection (control-corrected) (log10(CPM+1)); higher = more efficient recombination; sequences stand for … in AGTGCAGAGAAAATCGGCCAGTTTTCTCTGCCTGCAGTCCGCATGCCGT…AGATTTATGCAGCGGACTGCCTTTCTCCCAAAGTGATAAACCGGACAGTATCATGGACCGGTTTTCCCGGTAATCCGTATTTGCAAGGTTGGTTTCACT; site = the 11-nt target
Method in brief: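 A promoter, a target, a barcode and the first 104 bridge RNA bases under J23119 made up each oligo. Oligos were Gibson-cloned into a vector bearing the other 73 bp and a T7-inducible recombinase, then co-electroporated into E. coli with a donor plasmid and plated in duplicate on chloramphenicol/ampicillin LB agar (control) or chloramphenicol/ampicillin/kanamycin with 0.1 mM IPTG. Recombination efficiency is the averaged, control-corrected counts per million of recombinant-junction barcodes. Reported values are log10(CPM+1).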
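Also: IS621 recombinase and bridge RNA in Escherichia coli cells.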

| Sequence | recombinant barcode read abundance (log10) |
| --- | --- |
| TACGACACTTGGGTTCTAACCTGTTGCCT (site TACGACACTAG) | 1.9 |
| TACGACACTTGGGTTCTAACCTGTTGCCT (site TCCGACACTAG) | 0.0501 |
| TACGACTCTTGGGTTCTAACCTGTTGCTT (site TACGACTCTAA) | 1.73 |
| TACGACTCTTGGGTTCTAACCTGTTGCTT (site TTCGACTCTTA) | 0.0713 |
| TACGCACCTTGGGTTCTAACCTGTTGCGA (site GTAATTACTAG) | 0.297 |
| TACGCACCTTGGGTTCTAACCTGTTGCGA (site TACGCACCTTC) | 1.03 |
| TACGCGGCTTGGGTTCTAACCTGTTGCCT (site TACGAGGCTAG) | 0.0562 |
| TACGCGGCTTGGGTTCTAACCTGTTGCCT (site TACGCGGCTAG) | 0.335 |
| TACGCGGCTTGGGTTCTAACCTGTTGCCT (site TACGGGGCTAG) | 0.208 |
| TACGCGGCTTGGGTTCTAACCTGTTGCCT (site TACGTGGCTAG) | 0.192 |
| TACGCTCCTTGGGTTCTAACCTGTTGCCT (site TACGCTCCTAA) | 0.0709 |
| TACGCTCCTTGGGTTCTAACCTGTTGCCT (site TACGCTCCTAC) | 0 |
| TACGCTCCTTGGGTTCTAACCTGTTGCCT (site TACGCTCCTAG) | 0.271 |
| TACGCTCCTTGGGTTCTAACCTGTTGCCT (site TACGCTCCTAT) | 0.452 |
| TACGGCTCTTGGGTTCTAACCTGTTGCTT (site TACAGCTCTAA) | 0.297 |
| TACGGCTCTTGGGTTCTAACCTGTTGCTT (site TACCGCTCTAA) | 0.0429 |
| TACGGCTCTTGGGTTCTAACCTGTTGCTT (site TACGGCTCTAA) | 1.51 |
| TACGGCTCTTGGGTTCTAACCTGTTGCTT (site TACTGCTCTAA) | 0.0509 |
| TACTAAGCTTGGGTTCTAACCTGTTGCTT (site TACTAAGCTAA) | 0.184 |
| TACTAAGCTTGGGTTCTAACCTGTTGCTT (site TACTAAGCTAC) | 0.0381 |
| TACTAAGCTTGGGTTCTAACCTGTTGCTT (site TACTAAGCTAG) | 0.0797 |
| TACTAAGCTTGGGTTCTAACCTGTTGCTT (site TACTAAGCTAT) | 0.321 |
| TACTACCCTTGGGTTCTAACCTGTTGCGT (site TACTACCCTAC) | 0.358 |
| TACTACCCTTGGGTTCTAACCTGTTGCGT (site TGCCACCCTAC) | 1.28 |
| TACTCCTCTTGGGTTCTAACCTGTTGCGG (site CTAAAAGCTTG) | 0.0539 |
| TACTCCTCTTGGGTTCTAACCTGTTGCGG (site TACTCCTCTCC) | 0.155 |

| Sequence | recombinant barcode read abundance (log10) |
| --- | --- |
| TACTCTTCTTGGGTTCTAACCTGTTGCCT (site GGTCAACCTCC) | 0.0368 |
| TACTCTTCTTGGGTTCTAACCTGTTGCCT (site TACTCTTCTAG) | 0.279 |
| TACTGAACTTGGGTTCTAACCTGTTGCCT (site TACTAAACTAG) | 0.0356 |
| TACTGAACTTGGGTTCTAACCTGTTGCCT (site TACTCAACTAG) | 0.104 |
| TACTGAACTTGGGTTCTAACCTGTTGCCT (site TACTGAACTAG) | 0.159 |
| TACTGAACTTGGGTTCTAACCTGTTGCCT (site TACTTAACTAG) | 0.305 |
| TACTGGGCTTGGGTTCTAACCTGTTGCTG (site TACTGGGCTCA) | 0.684 |
| TACTGGGCTTGGGTTCTAACCTGTTGCTG (site TACTGGGCTCC) | 0.0895 |
| TAGAACACTTGGGTTCTAACCTGTTGCCT (site AAGAACACTAG) | 0.0955 |
| TAGAACACTTGGGTTCTAACCTGTTGCCT (site CAGAACACTAG) | 0.256 |
| TAGAACACTTGGGTTCTAACCTGTTGCCT (site GAGAACACTAG) | 0.108 |
| TAGAACACTTGGGTTCTAACCTGTTGCCT (site TAGAACACTAG) | 0.992 |
| TAGAACACTTGGGTTCTAACCTGTTGCTA (site TAGAACACTAA) | 0.237 |
| TAGAACACTTGGGTTCTAACCTGTTGCTA (site TAGAACACTCA) | 0.109 |
| TAGAACACTTGGGTTCTAACCTGTTGCTA (site TAGAACACTGA) | 0.71 |
| TAGAACACTTGGGTTCTAACCTGTTGCTA (site TAGAACACTTA) | 0.807 |
| TAGAACACTTGGGTTCTAACCTGTTGCTG (site TAGAACACTAA) | 0.106 |
| TAGAACACTTGGGTTCTAACCTGTTGCTG (site TAGAACACTCA) | 1 |
| TAGAACACTTGGGTTCTAACCTGTTGCTG (site TAGAACACTGA) | 0.132 |
| TAGAACACTTGGGTTCTAACCTGTTGCTG (site TAGAACACTTA) | 0.0894 |
| TAGAACTCTTGGGTTCTAACCTGTTGCCG (site TAGAACTCTAG) | 0.242 |
| TAGAACTCTTGGGTTCTAACCTGTTGCCG (site TAGAACTCTCG) | 0.591 |
| TAGAACTCTTGGGTTCTAACCTGTTGCCG (site TAGAACTCTGG) | 0.0844 |
| TAGAACTCTTGGGTTCTAACCTGTTGCCG (site TAGAACTCTTG) | 0.127 |
| TAGAAGACTTGGGTTCTAACCTGTTGCTT (site TAGAAGACTAA) | 0.37 |
| TAGAAGACTTGGGTTCTAACCTGTTGCTT (site TAGAAGACTCA) | 0.282 |

| Sequence | recombinant barcode read abundance (log10) |
| --- | --- |
| TAGAAGACTTGGGTTCTAACCTGTTGCTT (site TAGAAGACTGA) | 0.0968 |
| TAGAAGACTTGGGTTCTAACCTGTTGCTT (site TAGAAGACTTA) | 0.399 |
| TAGAAGGCTTGGGTTCTAACCTGTTGCTA (site TAGAAGCCTTA) | 0.0194 |
| TAGAAGGCTTGGGTTCTAACCTGTTGCTA (site TAGAAGGCTTA) | 1.15 |
| TAGAAGTCTTGGGTTCTAACCTGTTGCTG (site AAGATGTCTCA) | 0.122 |
| TAGAAGTCTTGGGTTCTAACCTGTTGCTG (site TAGAAGTCTCA) | 1.46 |
| TAGAATACTTGGGTTCTAACCTGTTGCGG (site TAGAATACTCC) | 1.06 |
| TAGAATACTTGGGTTCTAACCTGTTGCGG (site TATAATACTCC) | 0.0627 |
| TAGAATCCTTGGGTTCTAACCTGTTGCAC (site TAGAATCCTAT) | 0.117 |
| TAGAATCCTTGGGTTCTAACCTGTTGCAC (site TAGAATCCTCT) | 0.152 |
| TAGAATCCTTGGGTTCTAACCTGTTGCAC (site TAGAATCCTGT) | 0.152 |
| TAGAATCCTTGGGTTCTAACCTGTTGCAC (site TAGAATCCTTT) | 0.103 |
| TAGACAGCTTGGGTTCTAACCTGTTGCCT (site TAAACAGCTAG) | 0.143 |
| TAGACAGCTTGGGTTCTAACCTGTTGCCT (site TACACAGCTAG) | 0.122 |
| TAGACAGCTTGGGTTCTAACCTGTTGCCT (site TAGACAGCTAG) | 0.416 |
| TAGACAGCTTGGGTTCTAACCTGTTGCCT (site TATACAGCTAG) | 0.0229 |
| TAGACGACTTGGGTTCTAACCTGTTGCAC (site TAGACGACTGT) | 1.57 |
| TAGACGACTTGGGTTCTAACCTGTTGCAC (site TAGCCGTCTGT) | 0.173 |
| TAGACGACTTGGGTTCTAACCTGTTGCTT (site TAGACGACTAA) | 0.829 |
| TAGACGACTTGGGTTCTAACCTGTTGCTT (site TAGCCGACTAA) | 0.0758 |
| TAGACGACTTGGGTTCTAACCTGTTGCTT (site TAGGCGACTAA) | 0.0736 |
| TAGACGACTTGGGTTCTAACCTGTTGCTT (site TAGTCGACTAA) | 0.086 |
| TAGACTACTTGGGTTCTAACCTGTTGCCT (site CAGACTCCTAG) | 0.055 |
| TAGACTACTTGGGTTCTAACCTGTTGCCT (site TAGACTACTAG) | 0.521 |
| TAGACTACTTGGGTTCTAACCTGTTGCTC (site TAGACTACTAA) | 0 |
